≈ marks a conversion by molar mass, not a printed value. Residues, ends and D or L forms follow the SMILES beside them.
What was measured:
[1] = tested on: Klebsiella pneumoniae CMCC46117; type: cell-based; details: CMCC46117, 2 h
Description: (§1) The MIC assays were performed as previously described ([43]). Briefly, peptides were plated in a 2-fold dilution series (50 μL/well) of Mueller-Hinton broth (MHB) in Costar 96-well cell culture plates (Corning, NY, USA). Three repeats were set for each concentration. E. coli ATCC 25922, A. hydrophila ATCC 7966, P. aeruginosa PAO1, P. aeruginosa FRD1, S. aureus ATCC 25923, S. agalactiae ATCC 13813, S. pneumoniae ATCC 49619, methicillin-resistant S. aureus ATCC 43300, and methicillin-resistant S. aureus USA300 were cultured in Luria-Bertani (LB) medium, while K. pneumoniae CMCC46117 was cultured in tryptic soy broth (TSB) medium. Incubation was done at 37°C and 150 × g for 12 h. Bacteria were transferred to fresh MHB at a ratio of 1% (vol/vol) and incubated to reach a logarithmic growth phase. Then, 50 μL of a bacterial suspension at 4 × 10^6 CFU/mL was added to each well. […]

[2] = tested on: Aeromonas hydrophila ATCC 7966; type: cell-based; details: ATCC 7966, 2 h
Description: as §1

[3] = tested on: Staphylococcus aureus USA300; details: S. aureus USA300
Description: The MIC assays were performed as previously described ([43]). Briefly, peptides were plated in a 2-fold dilution series (50 μL/well) of Mueller-Hinton broth (MHB) in Costar 96-well cell culture plates (Corning, NY, USA). Three repeats were set for each concentration. E. coli ATCC 25922, A. hydrophila ATCC 7966, P. aeruginosa PAO1, P. aeruginosa FRD1, S. aureus ATCC 25923, S. agalactiae ATCC 13813, S. pneumoniae ATCC 49619, methicillin-resistant S. aureus ATCC 43300, and methicillin-resistant S. aureus USA300 were cultured in Luria-Bertani (LB) medium, while K. pneumoniae CMCC46117 was cultured in tryptic soy broth (TSB) medium. Incubation was done at 37°C and 150 × g for 12 h. Bacteria were transferred to fresh MHB at a ratio of 1% (vol/vol) and incubated to reach a logarithmic growth phase. Then, 50 μL of a bacterial suspension at 4 × 10^6 CFU/mL was added to each well. After incubation at 37°C for 22 ± 2 h, turbidity was measured using an EnSpire multimode plate reader (PerkinElmer, Singapore) at 595 nm.

[4] = tested on: P. aeruginosa FRD1 biofilm; assay: Biofilm eradication assay (crystal violet); type: cell-based, Pseudomonas aeruginosa; details: for biofilm eradication rate: 24-h mature FRD1 biofilm, 2 h
Description: (§2) In vitro static biofilm models have been reported in many studies ([45][–][47]). A Pseudomonas aeruginosa mucoid strain, FRD1, isolated from a cystic fibrosis patient, was used for the biofilm inhibition and eradication assay. The FRD1 strain was shock cultured to logarithmic growth stage at 37°C and 150 × g. After cleaning using PBS and centrifuging thrice, the bacteria were resuspended in MHB medium (with 0.2% glucose) and gradient diluted to an OD600 value of ~0.01.
For the eradication assay, biofilms of the FRD1 strain were grown in a 96-well plate. Briefly, 100-μL amounts of the bacterial suspension were plated and incubated at 37°C for 24 h. Then, wells containing the biofilms were washed thrice using PBS. The peptide was serially diluted in MHB medium (with 0.2% glucose) and added to the 96-well plates (100 μL/well). The plates were incubated for 2 h at 37°C. Finally, bacterial biofilms were quantified as described above for the biofilm inhibition assay.

[5] = tested on: E. coli ATCC 25922; assay: SYTOX green membrane permeability assay; type: cell-based, Escherichia coli; details: E. coli ATCC 25922, 5 μM SYTOX green, read every 1 min
Description: The SYTOX green staining assay was performed to assess peptide-associated membrane damage ([47], [52]). E. coli ATCC 25922 and S. aureus ATCC 25923 cells in the mid-logarithmic phase were collected, washed thrice, and resuspended (5 × 10^7 CFU/mL) in buffer B (10 mM Tris-HCl, pH 7.4, at 25°C). The bacterial suspensions were mixed with 5 μM SYTOX green and incubated for 15 min at room temperature in the dark. Then, the mixtures were added to black, clear-bottom 96-well plates at a density of 100 μL/well. After peptide addition, SYTOX green uptake was monitored using an EnSpire multimode plate reader (PerkinElmer, Singapore) with an excitation wavelength of 485 nm and an emission wavelength of 520 nm. Each measurement interval was 1 min, totaling 30 to 60 times. Melittin was used as the positive control, while bovine serum albumin (BSA) was the negative control.

[6] = tested on: P. aeruginosa FRD1 biofilm; assay: Biofilm inhibition assay (crystal violet); type: cell-based, Pseudomonas aeruginosa; details: P. aeruginosa FRD1, 6.25 μg/mL (0.5× MIC), 37°C 24 h, triplicate
Description: as §2
For the biofilm inhibition assay, 90-μL amounts of bacterial suspensions and 10-μL amounts of increasing concentrations of the peptide were added to a 96-well plate and coincubated at 37°C for 24 h. Then, bacterial biofilms were quantified as follows: (i) planktonic bacteria were removed by washing thrice using PBS, (ii) biofilm bacteria were fixed in 100 μL of 4% paraformaldehyde at room temperature for 15 min and (iii) stained with 100 μL of 0.1% crystal violet for 30 min, (iv) the dye was removed, followed by washing twice using PBS, adding 200 μL of 95% ethanol to each well to dissolve the crystal violet, and finally, (v) absorbance was measured at 590 nm using an EnSpire multimode plate reader (PerkinElmer, Singapore).

SMILES: CSCC[C@H](NC(=O)[C@H](Cc1c[nH]c2ccccc12)NC(=O)[C@H](CCCCN)NC(=O)[C@@H]1CCCN1C(=O)[C@H](Cc1c[nH]cn1)NC(=O)[C@H](C)N)C(=O)N[C@@H](CCC(=O)O)C(=O)N[C@H](C(=O)N[C@H](C(=O)N[C@@H](CCCNC(=N)N)C(=O)N[C@@H](CO)C(=O)N[C@@H](CCCNC(=N)N)C(=O)N[C@@H](CCC(N)=O)C(=O)N[C@@H](CCCNC(=N)N)C(=O)N[C@@H](CCCCN)C(=O)N[C@@H](CCCCN)C(=O)N[C@@H](CCCCN)C(=O)N[C@@H](Cc1c[nH]cn1)C(=O)N[C@@H](CC(N)=O)C(=O)N[C@@H](CCCCN)C(=O)N[C@@H](CCCNC(=N)N)C(=O)N[C@@H](CCCNC(=N)N)C(=O)N[C@@H](C)C(=O)N[C@H](C(=O)N[C@@H](Cc1ccc(O)cc1)C(=O)O)[C@@H](C)O)C(C)C)C(C)C [lcCCL28-25] (H-AHPKWMEVVRSRQRKKKHNKRRATY-OH; N-terminus and C-terminus assumed)
- MIC [1]: 25.00 µg/mL (≈ 7.83 µM)
- MIC [2]: >50.00 µg/mL
- decrease in antimicrobial activity with CaCl2 ([3]; 2.5 mM CaCl2 versus peptide only): 2 fold
- decrease in antimicrobial activity with NaCl ([3]; 150 mM NaCl versus peptide only): 4 fold
- reduction of antimicrobial activity under 10% serum ([3]; 10% mouse serum): 4 fold
- reduction of antimicrobial activity under 20% serum ([3]; 20% mouse serum): 8 fold
- reduction of antimicrobial activity under 40% serum ([3]; 40% mouse serum): 32 fold
- biofilm eradication rate ([4]; 12.5 μg/mL): more than 80%
- biofilm eradication rate ([4]; 25 μg/mL): above 90%
- concentration required to eradicate ~50% of biofilm ([4]; 24-h mature P. aeruginosa FRD1 biofilm, 2 h treatment, crystal violet): 3.13 µg/mL
- SYTOX green fluorescence intensity [5]: did not increase significantly in a short time (20 min)
- reduction of biofilm formation [6]: ~ 64%

From paper PMC9241943, “LcCCL28-25, Derived from Piscine Chemokine, Exhibits Antimicrobial Activity against Gram-Negative and Gram-Positive Bacteria In Vitro and In Vivo” (Microbiology Spectrum, 2022)
